Measured values published in patent US20200281873A1, “Adamantane or Bicyclic Monoterpenoid Derivatives for Use in the Treatment of Leishmaniasis” (Commissariat a l'Energie Atomique et aux Energies …, priority 2017, published 2020).

Tests used:
[1] = In vivo toxicity evaluation by oral route in mice (serum biochemical parameters); set-up: species or system Balb/C female mice
Protocol: Biochemical parameters relative to VP343 and VP370 toxicity in Balb/C female mice (18-20 g) after a single treatment by oral route at 100 mg/kg under a 0.1 mL volume (=5 mL/kg). Serum were collected one week after the treatment. Excipient: Methylcellulose 1%+Tween 0.1%.
Dosages were performed with a Cobas 800 (Roche/Hitachi) apparatus.

[2] = Incubation of VP343 with mouse hepatic microsomes (LC-MS); format: in vitro ADME; settings: t = 45 min
Protocol: (§1) The metabolites' identification of VP343 was performed after incubation of the compound with hepatic microsomal preparations from mouse, dog and human origin. The assay was performed by mixing VP343 at 5; 4; 2 or 1 μM with CD1 mouse hepatic microsomes (reference MIC255030 Biopredic) at 0.5 mg/mL of protein, or Beagle dog hepatic microsomes (reference MIC257013 Biopredic) at 1 mg/mL of protein, or human hepatic microsomes (reference MIC159882 Biopredic) at 1 mg/mL of protein, together with 1 mM NADPH (reference N1630 Sigma Aldrich), a phase I reaction's cofactor, in a 0.1 M phosphate buffer pH 7.4. Samples were then incubated in a Thermomixer® (Eppendorf) at 37° C. and 300 rotations per minute. After 45 minutes of incubation, the reaction was stopped with acetonitrile (0.5 volume of the experimental incubation volume). The samples' supernatants were then separated from the microsomes by centrifugation at 20,000 g during 10 minutes (Sorvall ST 16, Thermo Fisher Scientific) before analysis by liquid chromatography coupled to mass spectrometry (LC-MS).
(§2) The analysis was performed in two steps: first, on a positive electrospray ionisation source using a Waters Acquity I class UPLC (Ultra Performance Liquid Chromatography) system coupled to a Waters triple quadrupole mass spectrometer (Xevo TQMS) and then on an orbitrap source using a Thermo Fisher UHPLC (Ultra High Performance Liquid Chromatography) system (Ultimate 3000) coupled to a Thermo Fisher orbitrap mass spectrometer (Q Exactive) to confirm the structures of the identified metabolites. VP343 and his metabolites were separated by the UPLC system with a six minutes gradient of acetonitrile containing 0.1% of formic acid in a BEH C18 column (1.7 μm, 2.1×50 mm, Waters) with a mobile phase flow rate of 0.6 mL/min.
(§3) The metabolization of VP343 was studied by incubating the compound with mouse, dog, and human hepatic microsomes. The concentration of VP343 in the microsomal preparations was measured at t=0 and at t=45 min by liquid chromatography-tandem mass spectrometry (LC-MS). […]

[3] = Incubation of VP343 with human hepatic microsomes (LC-MS); format: in vitro ADME; settings: t = 45 min
Protocol: as §1, §2, §3

[4] = VP343 metabolites' identification by LC-MS in hepatic microsome supernatants; format: in vitro ADME; settings: supernatants of mouse, dog and human hepatic microsomes incubated with VP343 for 45 min
Protocol: as §1, with “The samples' supernatants were then separated from the microsomes by centrifugation at 20,000 g during 10 minutes (Sorvall ST 16, Thermo Fisher Scientific) before analysis by liquid chromatography coupled to mass spectrometry (LC-MS).” left out
In each analytical system, the identification was performed in two steps. […] This means that, in a define range mass (m/z 250 to 450), each ion present in the sample should be detected. […] By adding collision energy, the products ions of the targeted metabolites were monitored to validate the supposed metabolite's structure obtained after injecting the sample in full scan mode.
To further investigate the number and nature of the metabolites, supernatants from mouse, dog and human hepatic microsomes incubated with VP343 for 45 min were analyzed by LC-MS (cf. protocol).

[5] = single oral treatment 100 mg/kg, serum one week after treatment

**Q.** For `COc1ccc(Br)cc1CN(C)C12CC3CC(CC(C3)C1)C2` [VP343], which “Serum AST ± SD” value [1, 5] is on record?
**A.** 391 ± 72 U/L

**Q.** And the “Serum AST ± SD (second AST column)” value [1, 5]?
**A.** 169 ± 34 U/L

**Q.** And the Serum creatinin [1, 5]?
**A.** <18 µM

**Q.** And the “Toxicity after single oral treatment (in words)” value ([1]; single treatment by oral route at 100 mg/kg)?
**A.** did not show toxicity

**Q.** And the VP343 residual concentration ([2]; initial concentration 1 μM)?
**A.** 0.08 µM

**Q.** And the VP343 residual concentration ([2]; initial concentration 2 μM)?
**A.** 0.09 µM

**Q.** What about the VP343 residual concentration ([2]; initial concentration 4 μM) of the same compound?
**A.** 0.25 µM

**Q.** And the VP343 residual concentration ([3]; initial concentration 1 μM)?
**A.** 0.41 µM

**Q.** And the VP343 residual concentration ([3]; initial concentration 2 μM)?
**A.** 1.08 µM

**Q.** And the VP343 residual concentration ([3]; initial concentration 4 μM)?
**A.** 1.62 µM

**Q.** And the “Number of metabolites detected” value [4]?
**A.** 11
